Ki data for 18 compounds are collected here from patent US8450313B2, “2,3-diaryl- or heteroaryl-substituted 1,1,1-trifluoro-2-hydroxypropyl compounds” (Hoffmann-La Roche Inc., priority 2009, dated 2013).

The assay concerns the target T1, full length human recombinant glucocorticoid receptor (Homo sapiens, UniProt P04150).
T1 construct: It contains some partially purified full length human recombinant glucocorticoid receptor; purchased Panvera/Invitrogen PV4302
T1 sequence (P04150 1-777): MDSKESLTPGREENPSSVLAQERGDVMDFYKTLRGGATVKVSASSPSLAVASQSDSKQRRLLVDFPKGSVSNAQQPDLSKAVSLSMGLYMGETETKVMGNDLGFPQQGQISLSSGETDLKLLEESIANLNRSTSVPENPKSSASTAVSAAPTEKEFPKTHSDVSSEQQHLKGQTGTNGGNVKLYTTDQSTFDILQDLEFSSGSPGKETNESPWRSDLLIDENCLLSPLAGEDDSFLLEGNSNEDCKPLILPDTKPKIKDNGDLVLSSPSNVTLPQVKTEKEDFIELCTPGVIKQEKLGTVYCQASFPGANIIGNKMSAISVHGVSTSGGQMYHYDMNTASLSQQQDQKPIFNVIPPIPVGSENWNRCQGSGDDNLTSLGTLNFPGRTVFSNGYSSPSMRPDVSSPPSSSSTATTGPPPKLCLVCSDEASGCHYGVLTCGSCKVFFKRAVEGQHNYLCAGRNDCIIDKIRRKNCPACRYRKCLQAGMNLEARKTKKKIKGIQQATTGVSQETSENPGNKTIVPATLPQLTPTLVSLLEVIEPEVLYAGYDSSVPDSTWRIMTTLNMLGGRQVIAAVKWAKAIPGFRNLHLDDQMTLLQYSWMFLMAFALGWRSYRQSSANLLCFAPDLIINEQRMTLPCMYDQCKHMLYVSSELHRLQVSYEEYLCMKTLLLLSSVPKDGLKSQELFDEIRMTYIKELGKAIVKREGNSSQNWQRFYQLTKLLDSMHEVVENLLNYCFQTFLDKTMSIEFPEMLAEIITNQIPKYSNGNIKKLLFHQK
Briefly: Glucocorticoid Receptor Binding Assay (Glucocorticoid Receptor Competitor Assay far red kit, fluorescence polarization). Particulars: competition with fluorescent GR ligand Fluormone GS Far Red, 3 hours at 22° C., pH 7.4; Ki calculated from IC50 by Cheng-Prusoff. The method, boiled down:
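Fluorescence polarization competition with partially purified full-length human recombinant GR, stabilizing peptide and Fluormone GS Far Red tracer in screening buffer pH 7.4; 3 hours at 22° C in the dark, read at 610–660 nm. IC50 from sigmoidal fit; Ki by Cheng-Prusoff.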

A word on the Ki: it is the equilibrium dissociation constant of an inhibitor or competing ligand from its target. Regarding `CCOC(=O)COc1ccc(Cl)c([C@H](C)[C@](O)(c2ccc3c(c2)N(C)C(=O)CO3)C(F)(F)F)c1` (stereo in doubt) [Example 3, {4-Chloro-3-[3,3,3-trifluoro-2-hydroxy-1-methyl-2-(4-methyl-3-oxo-3,4-dihydro-2H-benzo[1,4]oxazin-6-yl)-propyl]-phenoxy}-acetic acid ethyl ester], the Ki is 9.2 nM.
The same measure for `COC(=O)c1ccc(Oc2ccc([C@H](C)[C@](O)(c3ccc4c(c3)N(C)C(=O)CO4)C(F)(F)F)c(Cl)c2)cc1Cl` (single isomer, unassigned) [Example 217]: 1 nM; for `C[C@H](c1ccc(-c2ccc(C(=O)O)c(Cl)c2)cc1Cl)[C@@](O)(c1ccc2c(c1)oc(=O)n2C)C(F)(F)F` (relative stereo) [Example 135, 3,3′-Dichloro-4′-[3,3,3-trifluoro-2-hydroxy-1-methyl-2-(3-methyl-2-oxo-2,3-dihydro-benzooxazol-6-yl)-propyl]-biphenyl-4-carboxylic acid]: 154 nM; for `C[C@@H](c1cc(Oc2ccc(C(=O)O)c(Cl)c2)ccc1Cl)[C@](O)(c1ccc2c(c1)N(C)C(=O)CO2)C(F)(F)F` (relative stereo) [Example 10, 2-Chloro-4-{4-chloro-3-[3,3,3-trifluoro-2-hydroxy-1-methyl-2-(4-methyl-3-oxo-3,4-dihydro-2H-benzo[1,4]oxazin-6-yl)-propyl]-phenoxy}-benzoic acid]: 3.7 nM.
The same measure for `COC(=O)c1ccc(-c2ccc([C@@H](C)[C@@](O)(c3ccc4oc(=O)n(C)c4c3)C(F)(F)F)c(Cl)c2)cc1Cl` (relative stereo) [Example 123, 3,3′-Dichloro-4′-[3,3,3-trifluoro-2-hydroxy-1-methyl-2-(3-methyl-2-oxo-2,3-dihydro-benzooxazol-5-yl)-propyl]-biphenyl-4-carboxylic acid methyl ester]: 1.1 nM; for `C[C@H](c1ccc(-c2ccc(CC(=O)O)cc2)cc1Cl)[C@@](O)(c1ccc2c(c1)n(C)c(=O)n2C)C(F)(F)F` (stereo in doubt) [Example 82, {3′-Chloro-4′-[2-(1,3-dimethyl-2-oxo-2,3-dihydro-1H-benzoimidazol-5-yl)-3,3,3-trifluoro-2-hydroxy-1-methyl-propyl]-biphenyl-4-yl}-acetic acid]: 7 nM.
In the case of `C[C@H](c1ccc(-c2ccc(C(=O)O)nc2)cc1Cl)[C@@](O)(c1ccc2oc(=O)n(C)c2c1)C(F)(F)F` (relative stereo) [Example 189, 5-{3-Chloro-4-[3,3,3-trifluoro-2-hydroxy-1-methyl-2-(3-methyl-2-oxo-2,3-dihydro-benzooxazol-5-yl)-propyl]-phenyl}-pyridine-2-carboxylic acid], the inhibition constant (Ki) is 6.6 nM.
In the case of `C[C@H](c1ccc(Oc2ccc(C(F)(F)F)c(C(=O)O)n2)cc1Cl)[C@@](O)(c1ccc2c(c1)n(C)c(=O)n2C)C(F)(F)F` (stereo in doubt) [Example 112, 6-{3-Chloro-4-[2-(1,3-dimethyl-2-oxo-2,3-dihydro-1H-benzoimidazol-5-yl)-3,3,3-trifluoro-2-hydroxy-1-methyl-propyl]-phenoxy}-3-trifluoromethyl-pyridine-2-carboxylic acid], the Ki is 26.4 nM.
On to `COC(=O)c1cncc(-c2ccc([C@@H](C)[C@@](O)(c3ccc4oc(=O)n(C)c4c3)C(F)(F)F)c(Cl)c2)c1` (relative stereo) [Example 186, 5-{3-Chloro-4-[3,3,3-trifluoro-2-hydroxy-1-methyl-2-(3-methyl-2-oxo-2,3-dihydro-benzooxazol-5-yl)-propyl]-phenyl}-nicotinic acid methyl ester], for which the Ki is 1.4 nM.
In the case of `COC(=O)c1ccc(Oc2ccc(Cl)c([C@H](C)[C@](O)(c3ccc4c(c3)N(C)C(=O)CO4)C(F)(F)F)c2)cc1F` (relative stereo) [Example 13, 4-{4-Chloro-3-[3,3,3-trifluoro-2-hydroxy-1-methyl-2-(4-methyl-3-oxo-3,4-dihydro-2H-benzo[1,4]oxazin-6-yl)-propyl]-phenoxy}-2-fluoro-benzoic acid methyl ester], the Ki is 5.4 nM.
On to `CCOC(=O)C(C)(C)Oc1ccc([C@@H](C)[C@@](O)(c2ccc3oc(=O)n(C)c3c2)C(F)(F)F)c(Cl)c1` (stereo in doubt) [Example 229, 2-{3-Chloro-4-[3,3,3-trifluoro-2-hydroxy-1-methyl-2-(3-methyl-2-oxo-2,3-dihydro-benzooxazol-5-yl)-propyl]-phenoxy}-2-methyl-propionic acid ethyl ester], for which the Ki is 3.9 nM.
`C[C@H](c1ccc(-c2ccc(C(=O)O)c(F)c2)cc1Cl)[C@@](O)(c1cnc2c(c1)N(C)C(=O)CO2)C(F)(F)F` (stereo in doubt) [Example 52, 3′-Chloro-3-fluoro-4′-[3,3,3-trifluoro-2-hydroxy-1-methyl-2-(1-methyl-2-oxo-2,3-dihydro-1H-pyrido[2,3-b][1,4]oxazin-7-yl)-propyl]-biphenyl-4-carboxylic acid]: the Ki was 122 nM.
With `C[C@@H](c1ccc(-c2ccc(C(=O)O)c(F)c2)cc1Cl)[C@](O)(c1cc2c(cc1F)OCC(=O)N2C)C(F)(F)F` (stereo in doubt) [Example 137, 3′-Chloro-3-fluoro-4′-[3,3,3-trifluoro-2-(7-fluoro-4-methyl-3-oxo-3,4-dihydro-2H-benzo[1,4]oxazin-6-yl)-2-hydroxy-1-methyl-propyl]-biphenyl-4-carboxylic acid], the Ki was 20 nM.
The same measure for `C[C@H](c1ccc(Oc2cnc(C(=O)O)cn2)cc1Cl)[C@@](O)(c1ccc2c(c1)N(C)C(=O)CO2)C(F)(F)F` (racemic) [Example 228, 5-{3-Chloro-4-[3,3,3-trifluoro-2-hydroxy-1-methyl-2-(4-methyl-3-oxo-3,4-dihydro-2H-benzo[1,4]oxazin-6-yl)-propyl]-phenoxy}-pyrazine-2-carboxylic acid]: 10.6 nM; for `COC(=O)c1cnc(Oc2ccc([C@@H](C)[C@@](O)(c3ccc4oc(=O)n(C)c4c3)C(F)(F)F)c(Cl)c2)cc1Cl` (relative stereo) [Example 183, 4-Chloro-6-{3-chloro-4-[3,3,3-trifluoro-2-hydroxy-1-methyl-2-(3-methyl-2-oxo-2,3-dihydro-benzooxazol-5-yl)-propyl]-phenoxy}-nicotinic acid methyl ester]: 3 nM; for `C[C@@H](c1cc(-c2cccc(C(=O)O)c2)ccc1Cl)[C@](O)(c1ccc2c(c1)N(C)C(=O)CO2)C(F)(F)F` (relative stereo) [Example 18, 4′-Chloro-3′-[3,3,3-trifluoro-2-hydroxy-1-methyl-2-(4-methyl-3-oxo-3,4-dihydro-2H-benzo[1,4]oxazin-6-yl)-propyl]-biphenyl-3-carboxylic acid]: 609 nM.
The same measure for `C[C@H](c1ccc(Oc2ncc(C(=O)O)cc2Cl)cc1Cl)[C@@](O)(c1ccc(C#N)cc1)C(F)(F)F` (relative stereo) [Example 155, 5-Chloro-6-{3-chloro-4-[2-(4-cyano-phenyl)-3,3,3-trifluoro-2-hydroxy-1-methyl-propyl]-phenoxy}-nicotinic acid]: 8.9 nM; for `Cc1cc([C@@](O)([C@@H](C)c2ccc(Oc3ccc(C(=O)O)cn3)cc2Cl)C(F)(F)F)cc(C)c1C#N` (stereo in doubt) [Example 148, 6-{3-Chloro-4-[2-(4-cyano-3,5-dimethyl-phenyl)-3,3,3-trifluoro-2-hydroxy-1-methyl-propyl]-phenoxy}-nicotinic acid]: 1.6 nM.
